What was measured:
[1] = biological target: T1, RRP8 Ribosomal RNA-processing protein 8 (Homo sapiens, UniProt O43159); test: Cysteine liganding, probe competition; type: binding
T1 construct: Cells were resuspended in cold PBS on ice and sonicated with a probe sonicator to achieve lysis; endogenous in cells
T1 sequence (O43159 1-456): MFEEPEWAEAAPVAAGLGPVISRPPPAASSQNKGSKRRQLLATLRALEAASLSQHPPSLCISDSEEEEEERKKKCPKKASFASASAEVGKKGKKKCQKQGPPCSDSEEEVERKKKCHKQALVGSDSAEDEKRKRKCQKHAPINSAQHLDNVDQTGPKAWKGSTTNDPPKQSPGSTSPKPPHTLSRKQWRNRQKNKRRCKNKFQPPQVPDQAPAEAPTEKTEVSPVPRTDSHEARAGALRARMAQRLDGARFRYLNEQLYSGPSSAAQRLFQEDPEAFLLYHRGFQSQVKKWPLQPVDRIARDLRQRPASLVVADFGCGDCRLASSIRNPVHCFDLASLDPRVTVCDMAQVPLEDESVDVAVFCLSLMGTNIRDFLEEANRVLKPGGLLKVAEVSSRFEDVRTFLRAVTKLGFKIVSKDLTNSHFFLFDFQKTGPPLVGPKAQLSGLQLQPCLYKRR
Summary of the method: (§1)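 Steps: sonicate cells in cold PBS; treat 5 mg/ml lysate with compound (25° C, 1 hr); add desthiobiotin iodoacetamide probe from a 10 mM stock (25° C, 1 hr); precipitate, reduce, alkylate, digest with trypsin; capture labelled peptides on streptavidin for analysis.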

[2] = biological target: T2, VPS18 Vacuolar protein sorting-associated protein 18 homolog (Homo sapiens, UniProt Q9P253); test: Cysteine liganding, probe competition; type: binding
T2 construct: Cells were resuspended in cold PBS on ice and sonicated with a probe sonicator to achieve lysis; endogenous in cells
T2 sequence (Q9P253 1-973): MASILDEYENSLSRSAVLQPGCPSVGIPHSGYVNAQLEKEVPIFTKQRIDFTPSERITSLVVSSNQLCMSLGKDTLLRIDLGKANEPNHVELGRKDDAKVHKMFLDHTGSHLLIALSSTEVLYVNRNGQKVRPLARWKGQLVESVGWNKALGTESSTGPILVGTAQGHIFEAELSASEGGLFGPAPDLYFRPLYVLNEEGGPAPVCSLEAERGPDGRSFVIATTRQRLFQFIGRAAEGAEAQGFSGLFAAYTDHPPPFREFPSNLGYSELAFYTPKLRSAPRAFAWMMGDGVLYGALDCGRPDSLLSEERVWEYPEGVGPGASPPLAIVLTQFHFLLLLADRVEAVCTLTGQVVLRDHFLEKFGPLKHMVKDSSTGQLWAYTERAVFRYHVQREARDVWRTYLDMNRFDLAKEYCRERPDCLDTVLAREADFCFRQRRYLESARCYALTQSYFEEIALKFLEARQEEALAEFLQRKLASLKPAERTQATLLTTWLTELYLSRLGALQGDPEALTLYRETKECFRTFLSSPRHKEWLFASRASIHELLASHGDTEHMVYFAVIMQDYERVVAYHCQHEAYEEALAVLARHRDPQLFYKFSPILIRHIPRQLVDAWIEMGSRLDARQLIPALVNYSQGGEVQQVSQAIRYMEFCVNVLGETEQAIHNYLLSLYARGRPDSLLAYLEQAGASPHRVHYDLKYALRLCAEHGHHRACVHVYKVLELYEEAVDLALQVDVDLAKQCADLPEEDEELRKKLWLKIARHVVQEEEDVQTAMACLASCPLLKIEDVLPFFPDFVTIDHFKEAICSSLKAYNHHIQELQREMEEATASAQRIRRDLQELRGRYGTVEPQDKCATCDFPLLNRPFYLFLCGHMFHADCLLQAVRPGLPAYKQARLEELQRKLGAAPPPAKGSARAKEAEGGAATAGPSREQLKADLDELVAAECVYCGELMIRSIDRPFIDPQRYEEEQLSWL
Summary of the method: as §1

Row | Structure (SMILES) | Liganded ([1]; RRP8 Res# 451, uniprot O43159) | Liganded ([2]; VPS18 Res# 806, uniprot Q9P253) | 100 Max ([1]; uniprot O43159) | 100 ave ([1]; uniprot O43159) | 500 Max ([1]; uniprot O43159) | 500 ave ([1]; uniprot O43159) | 100 Max ([2]; uniprot Q9P253) | 100 ave ([2]; uniprot Q9P253) | 500 Max ([2]; uniprot Q9P253) | 500 ave ([2]; uniprot Q9P253)
1 | COc1ccc2c(c1)CCCN2C(=O)CCl [KB02] | YES | YES |  |  |  |  |  |  |  | 
2 | O=C(CCl)Nc1cc(C(F)(F)F)cc(C(F)(F)F)c1 [KBO3] |  |  | 14.62 | −3.99 | 57.64 | 48.93 | 19.6 | 16.2 | 47.0 | 47.0
